From patent publication US20250281516A1, “NUTRACEUTICAL FORMULATION FOR POLYCYSTIC OVARY SYNDROME” (priority 2019, published 2025)

How the values were obtained:
[1] = system: PCOS symptoms; assay: Physician's further feedback in general on PCOS symptom control; parameters: species or system women; conditions: in vivo
[2] = system: infertile PCOS women; conditions: inositol and folic acid administered; cited from earlier work
[3] = system: patients (ovulation); conditions: inositol alone administered; cited from earlier work

Structure (SMILES) | effectiveness compared with the combination formulation [1] | restoration of ovulation [2] | patients showing improvement in ovulation [3] | duration of treatment after which most PCOS symptoms were controlled [1] [month]
O[C@H]1[C@H](O)[C@@H](O)[C@H](O)[C@@H](O)[C@H]1O [inositol] | not as effective | about 70% | about 62% | 
O[C@H]1[C@H](O)[C@@H](O)[C@H](O)[C@@H](O)[C@H]1O [myo-inositol] |  |  |  | > 6
